# Test system: high-risk infants
# Set-up: species or system human
# Settings: in vivo
# Source text: High-risk infants were identified using parental history of atopic disease and were randomized to either the skin treatment regimen and composition or standard routine care, each set forth below, from soon after recruitment in the postnatal ward (approximately 4 day) until eight weeks of age. Both the intervention and standard of care groups were advised to use a standardized bathing routine for the first 2 months. • Skin treatment regimen and composition: twice daily whole-body application of […] & Long-Lasting Balm, which on pack contains the following ingredients: glycerin, aqua, cetearyl alcohol, isocetyl alcohol, dimethicone, cetyl alcohol, Avena sativa kernel flour, Avena sativa kernel extract, Avena sativa kernel oil, caprylic/capric triglyceride, ceramide 3, ethylhexylglycerin, p-anisic acid, sodium cetearyl sulfate, palmitic acid, stearic acid, sodium sulfate, sodium chloride, citric acid, dipotassium phosphate, potassium phosphate, sodium hydroxide, tocopherol, benzyl alcohol, benzoic acid, and potassium sorbate. • Control: Standard routine care, which involves no use of moisturizer for the first two months. Within approximately 4 days of birth, infants were randomized to either treatment with skin treatment regimen and composition or to standard routine skincare with no moisturizer until 2 months of age. […]
substance,measurement,value
AVEENO® Dermexa Fast & Long-Lasting Balm [Intervention],Infants advised to stop applying the emollient after developing a rash with a potential temporal relationship with the emollient,One
same,Parent-reported skin infections,5%

# Reference: US12138286B2, “Combination method for treating or preventing childhood atopic disease” (Johnson & Johnson Consumer Inc., priority 2022, dated 2024)
